{
  "source": "paper PMC12751012",
  "about": "“Nanoscale Direct-to-Biology Optimization and Structural Insights into Selective S. aureus TrmD Inhibitors” (Journal of Medicinal Chemistry, 2025)",
  "data": [
    {"target": "T1, S. aureus TrmD (Staphylococcus aureus, UniProt Q2FZ43)", "T1 construct": "made in house; host or cells: E. coli BL21", "T1 sequence (Q2FZ43 1-245)": "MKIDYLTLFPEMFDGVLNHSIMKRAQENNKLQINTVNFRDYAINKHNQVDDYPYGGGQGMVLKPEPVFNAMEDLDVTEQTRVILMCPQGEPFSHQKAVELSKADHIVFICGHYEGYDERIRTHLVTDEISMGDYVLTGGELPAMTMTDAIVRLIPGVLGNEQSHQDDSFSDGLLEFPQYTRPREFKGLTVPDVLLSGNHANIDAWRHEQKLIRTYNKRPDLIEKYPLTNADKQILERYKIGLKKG", "assay": "nanoSAR direct-to-biology FP displacement screening of crude triazoles", "assay_type": "binding", "conditions": "crude triazole at 1 μM, assuming full conversion; 500 nM TrmD, 10 nM tracer 4; read-out: % displaced tracer", "excerpt": "Next, we conducted an S. aureus TrmD-targeting nanoSAR study. For this, alkyne 7 was reacted on a 96 nmol scale with an in-house diversity-oriented azide library (N = 320, mean pairwise Tanimoto similarity = 0.11) designed to cover a large chemical fragment space, generating a panel of 320 crude triazoles ready for FP assay investigation. The composition of the azide library is designed to be chemically diverse in several categories, including physicochemical properties such as polar surface area, lipophilicity, and the number of hydrogen bond donors and acceptors, as well as structural features like the number of aromatic rings (Figure S23). A complete list of chemical structures included in the azide library can be found in Table S4. In situ reaction conditions for CuAAC were adapted from Gehrtz et al., utilizing CuSO4, which is reduced in situ to Cu(I) by sodium ascorbate and stabilized by TBTA. Degassed water and DMSO (1:1) were used as solvents to prevent the oxidation from Cu(I) to Cu(II). For the synthesis of the triazole library, a master mix was prepared, containing all reaction components except the azides. All reactions were started by the addition of the respective azide in 24 μL at a final product concentration of 4 mM (96 nmol). Reaction mixtures were incubated for 16 h at room temperature and under an argon atmosphere in sealed 96-well plates.\nFor FP assay screening, we used 500 nM of S. aureus TrmD and 10 nM of tracer 4 in a total volume of 40 μL in 96-well plates. We performed control measurements and defined 10 nM of tracer 4 in buffer as 100% displacement and the DMSO control as 0% tracer displacement. […] The results of the FP screening were visualized in a waterfall plot and plate-based heatmaps (Figure , Figure S3).\nFluorescence polarization (FP) assays were performed as follows. The assays for H. influenzae TrmD have been described previously. All assays were conducted in technical triplicate using black 96-well half area plates. For the FP assays, a tracer (20 nM Cy5TPD for E. coli and H. influenzae TrmD, 10 nM tracer 4 for S. aureus TrmD) was mixed with the respective enzyme (2 μM E. coli TrmD, 2 μM H. influenzae TrmD, 500 nM S. aureus TrmD) in buffer (E. coli and H. influenzae TrmD: 50 mM HEPES, 500 mM NaCl, 5% Glycerol, pH 7.5, S. aureus TrmD: 40 mM Tris HCl, 100 mM NaCl, 10 mM MgCl2, 5% Glycerol, pH 7.5). The compounds were added in varying concentrations for K D-value determination. […] The Z-factor for tracer 4 was determined by measuring 48 replicates of the free tracer (positive controls, PC) and 48 replicates of a mixture of enzyme and tracer (negative controls, NC). The Z-factor is defined in terms of the means (μ) and standard deviations (σ) of the positive and negative controls and calculated as Z = 1–(3*(σnc + σpc)/(μnc–μpc)). […] Polarization values (mP) were determined from polarization-specific parallel and orthogonal fluorescence intensities. K D-values were calculated in GraphPad Prism 8.0.1 using the four-parameter Hill equation: y(% tracer bound) = bottom + ([ligand]-slope) × (top–bottom)/([ligand]-slope + K Dslope).\nA commercial azide diversity library (Enamine) containing 320 azides at a concentration of 100 mM in DMSO in a 96-well tube rack was employed for this nanoSAR study. For the reaction of the azides with alkyne 7 via CuAAC, a master mix was prepared. […] The solvents were degassed with argon to avoid oxidation of the copper(I) during the reaction. To each well of a 96-well PCR plate (Applied Biosystems MicroAmp) were added 23 μL of the master mix and 1 μL of the 100 mM azide stock. The final concentrations in the Mastermix were: 8.7 mM sodium ascorbate (8.3 mM in reaction well), 1.1 mM TBTA (1.0 mM in reaction well), 4.3 mM 7 (4.1 mM in reaction well), 1.3 mM CuSO4×5 H2O (1.2 mM in reaction well).", "units": {"inhibition at 1 µM": "%"}, "values": [
      {"compound": "N#Cc1ccc(Cn2cc(-c3c[nH]c4nc[nH]c(=O)c34)nn2)c(F)c1", "note": "[Compound 01A01, Fc1c(ccc(C#N)c1)CN2N=NC(C=3C=4C(=O)NC=NC4NC3)=C2]", "inhibition at 1 µM": 12},
      {"compound": "O=c1[nH]cnc2[nH]cc(-c3cn(Cc4cnn(-c5ccccc5)c4)nn3)c12", "note": "[Compound 01A02, O=C1NC=NC=2NC=C(C=3N=NN(C3)CC=4C=NN(c5ccccc5)C4)C12]", "inhibition at 1 µM": 81},
      {"compound": "O=c1[nH]cnc2[nH]cc(-c3cn(Cc4cccnn4)nn3)c12", "note": "[Compound 01A03, O=C1NC=NC=2NC=C(C=3N=NN(C3)Cc4nnccc4)C12]", "inhibition at 1 µM": 65},
      {"compound": "O=c1[nH]cnc2[nH]cc(-c3cn(CCN4CCCC4)nn3)c12", "note": "[Compound 01A04, O=C1NC=NC=2NC=C(C=3N=NN(C3)CC[NH+]4CCCC4)C12]", "inhibition at 1 µM": 22},
      {"compound": "CC(C)n1cc(-c2c[nH]c3nc[nH]c(=O)c23)nn1", "note": "[Compound 01A05, O=C1NC=NC=2NC=C(C=3N=NN(C3)C(C)C)C12]", "inhibition at 1 µM": 23},
      {"compound": "O=c1[nH]cnc2[nH]cc(-c3cn(C[C@H]4CCC[C@@]5(CCOC5)O4)nn3)c12", "note": "[Compound 01A06, O=C1NC=NC=2NC=C(C=3N=NN(C3)C[C@@H]4O[C@@]5(COCC5)CCC4)C12]", "inhibition at 1 µM": 52},
      {"compound": "O=c1[nH]cnc2[nH]cc(-c3cn(Cc4cc(C5CC5)no4)nn3)c12", "note": "[Compound 01A07, O=C1NC=NC=2NC=C(C=3N=NN(C3)CC=4ON=C(C4)C5CC5)C12]", "inhibition at 1 µM": 77},
      {"compound": "O=c1[nH]cnc2[nH]cc(-c3cn([C@@H]4C[C@H]5CCC[C@@H](C4)N5)nn3)c12", "note": "[Compound 01A08, O=C1NC=NC=2NC=C(C=3N=NN(C3)[C@@H]4C[C@@H]5[NH2+][C@H](C4)CCC5)C12]", "inhibition at 1 µM": 38},
      {"compound": "CC(C)CCn1cc(-c2c[nH]c3nc[nH]c(=O)c23)nn1", "note": "[Compound 01A09, O=C1NC=NC=2NC=C(C=3N=NN(C3)CCC(C)C)C12]", "inhibition at 1 µM": 26},
      {"compound": "O=C(Cn1cc(-c2c[nH]c3nc[nH]c(=O)c23)nn1)Nc1ccccc1", "note": "[Compound 01A10, O=C1NC=NC=2NC=C(C=3N=NN(C3)CC(=O)Nc4ccccc4)C12]", "inhibition at 1 µM": 41},
      {"compound": "O=c1[nH]cnc2[nH]cc(-c3cn(C[C@@H]4CC(F)(F)CO4)nn3)c12", "note": "[Compound 01A11, F[C@]1(F)CO[C@H](CN2N=NC(C=3C=4C(=O)NC=NC4NC3)=C2)C1]", "inhibition at 1 µM": 44},
      {"compound": "COc1cccc(C2(n3cc(-c4c[nH]c5nc[nH]c(=O)c45)nn3)CCC2)c1", "note": "[Compound 01A12, O=C1NC=NC=2NC=C(C=3N=NN(C3)C4(c5cc(OC)ccc5)CCC4)C12]", "inhibition at 1 µM": 10},
      {"compound": "O=c1[nH]cnc2[nH]cc(-c3cn([C@H]4CCCNC4)nn3)c12", "note": "[Compound 01B01, O=C1NC=NC=2NC=C(C=3N=NN(C3)[C@@H]4C[NH2+]CCC4)C12]", "inhibition at 1 µM": 29},
      {"compound": "Cc1ccc2nc(Cn3cc(-c4c[nH]c5nc[nH]c(=O)c45)nn3)cn2c1", "note": "[Compound 01B02, O=C1NC=NC=2NC=C(C=3N=NN(C3)CC=4N=C5N(C4)C=C(C=C5)C)C12]", "inhibition at 1 µM": 57},
      {"compound": "O=c1[nH]cnc2[nH]cc(-c3cn(-c4ccc5c(c4)CCO5)nn3)c12", "note": "[Compound 01B03, O=C1NC=NC=2NC=C(C=3N=NN(c4cc5c(OCC5)cc4)C3)C12]", "inhibition at 1 µM": 52},
      {"compound": "Cc1ccc2c(c1)[C@H](n1cc(-c3c[nH]c4nc[nH]c(=O)c34)nn1)CCC2", "note": "[Compound 01B04, O=C1NC=NC=2NC=C(C=3N=NN(C3)[C@H]4c5c(ccc(c5)C)CCC4)C12]", "inhibition at 1 µM": 27},
      {"compound": "O=c1[nH]cnc2[nH]cc(-c3cn(C4CC4)nn3)c12", "note": "[Compound 01B05, O=C1NC=NC=2NC=C(C=3N=NN(C3)C4CC4)C12]", "inhibition at 1 µM": 12},
      {"compound": "O=c1[nH]cnc2[nH]cc(-c3cn(CC4CNC4)nn3)c12", "note": "[Compound 01B06, O=C1NC=NC=2NC=C(C=3N=NN(C3)CC4C[NH2+]C4)C12]", "inhibition at 1 µM": 62},
      {"compound": "O=c1[nH]cnc2[nH]cc(-c3cn([C@@H]4CCOC5(CCNCC5)C4)nn3)c12", "note": "[Compound 01B07, O=C1NC=NC=2NC=C(C=3N=NN(C3)[C@H]4CC5(OCC4)CC[NH2+]CC5)C12]", "inhibition at 1 µM": 34},
      {"compound": "O=c1[nH]cnc2[nH]cc(-c3cn(Cc4nc5ccccc5[nH]4)nn3)c12", "note": "[Compound 01B08, O=C1NC=NC=2NC=C(C=3N=NN(C3)CC4=Nc5c(N4)cccc5)C12]", "inhibition at 1 µM": 43},
      {"compound": "O=c1[nH]cnc2[nH]cc(-c3cn(CCCCF)nn3)c12", "note": "[Compound 01B09, FCCCCN1N=NC(C=2C=3C(=O)NC=NC3NC2)=C1]", "inhibition at 1 µM": 19},
      {"compound": "O=c1[nH]cnc2[nH]cc(-c3cn(CC4CCCCC4)nn3)c12", "note": "[Compound 01B10, O=C1NC=NC=2NC=C(C=3N=NN(C3)CC4CCCCC4)C12]", "inhibition at 1 µM": 33},
      {"compound": "O=c1[nH]cnc2[nH]cc(-c3cn(-c4ccc(OC(F)(F)F)c(Cl)c4)nn3)c12", "note": "[Compound 01B11, Clc1c(OC(F)(F)F)ccc(N2N=NC(C=3C=4C(=O)NC=NC4NC3)=C2)c1]", "inhibition at 1 µM": 16},
      {"compound": "CCOCCn1cc(-c2c[nH]c3nc[nH]c(=O)c23)nn1", "note": "[Compound 01B12, O=C1NC=NC=2NC=C(C=3N=NN(C3)CCOCC)C12]", "inhibition at 1 µM": 21},
      {"compound": "C[C@@H](c1cnnn1C)n1cc(-c2c[nH]c3nc[nH]c(=O)c23)nn1", "note": "[Compound 01C01, O=C1NC=NC=2NC=C(C=3N=NN(C3)[C@H](C=4N(N=NC4)C)C)C12]", "inhibition at 1 µM": 33},
      {"compound": "Cc1nnc(Cn2cc(-c3c[nH]c4nc[nH]c(=O)c34)nn2)o1", "note": "[Compound 01C02, O=C1NC=NC=2NC=C(C=3N=NN(C3)CC=4OC(=NN4)C)C12]", "inhibition at 1 µM": 27},
      {"compound": "O=c1[nH]cnc2[nH]cc(-c3cn([C@@H]4CCc5cc(Cl)ccc54)nn3)c12", "note": "[Compound 01C03, Clc1cc2c(cc1)[C@H](N3N=NC(C=4C=5C(=O)NC=NC5NC4)=C3)CC2]", "inhibition at 1 µM": 72},
      {"compound": "O=c1[nH]cnc2[nH]cc(-c3cn(Cc4noc5c4CCC5)nn3)c12", "note": "[Compound 01C04, O=C1NC=NC=2NC=C(C=3N=NN(C3)CC4=NOC5=C4CCC5)C12]", "inhibition at 1 µM": 41},
      {"compound": "O=c1[nH]cnc2[nH]cc(-c3cn(CCF)nn3)c12", "note": "[Compound 01C05, FCCN1N=NC(C=2C=3C(=O)NC=NC3NC2)=C1]", "inhibition at 1 µM": 22},
      {"compound": "O=c1[nH]cnc2[nH]cc(-c3cn(C[C@H]4CCCO4)nn3)c12", "note": "[Compound 01C06, O=C1NC=NC=2NC=C(C=3N=NN(C3)C[C@@H]4OCCC4)C12]", "inhibition at 1 µM": 24},
      {"compound": "COCc1cccc(-n2cc(-c3c[nH]c4nc[nH]c(=O)c34)nn2)c1", "note": "[Compound 01C07, O=C1NC=NC=2NC=C(C=3N=NN(c4cc(ccc4)COC)C3)C12]", "inhibition at 1 µM": 17},
      {"compound": "O=c1[nH]cnc2[nH]cc(-c3cn(CCCOC4CCC4)nn3)c12", "note": "[Compound 01C08, O=C1NC=NC=2NC=C(C=3N=NN(C3)CCCOC4CCC4)C12]", "inhibition at 1 µM": 27},
      {"compound": "O=c1[nH]cnc2[nH]cc(-c3cn(Cc4ncon4)nn3)c12", "note": "[Compound 01C09, O=C1NC=NC=2NC=C(C=3N=NN(C3)CC4=NOC=N4)C12]", "inhibition at 1 µM": 31},
      {"compound": "CCN(CC)C(=O)Cn1cc(-c2c[nH]c3nc[nH]c(=O)c23)nn1", "note": "[Compound 01C10, O=C1NC=NC=2NC=C(C=3N=NN(C3)CC(=O)N(CC)CC)C12]", "inhibition at 1 µM": 25},
      {"compound": "O=c1[nH]cnc2[nH]cc(-c3cn(CCn4ccccc4=O)nn3)c12", "note": "[Compound 01C11, O=C1N(C=CC=C1)CCN2N=NC(C=3C=4C(=O)NC=NC4NC3)=C2]", "inhibition at 1 µM": 52}
    ]}
  ]
}
